Assay results reported in US12296053B2, “Nanomaterials comprising triols” (Beam Therapeutics Inc., priority 2022, dated 2025).

What was measured:
ALAS1 target site = experiment: Base editing in liver by LNP-delivered ABE mRNA and sgRNA, targeted deep sequencing; assay type: in vivo; conditions: LNP with the ionizable lipid, ABE mRNA + sgRNA targeting ALAS1 1:1; tail vein injection, Balb/c mice; 0.05 mg/kg; tissues four to six days post-dose
Description: (§1) Lipid nanoparticle components were dissolved in 100% ethanol at specified lipid component molar ratios. mRNA encoding an adenine base editor and a chemically-modified sgRNA was dissolved at a mass ratio of 1:1 in 50 mM citrate, pH 4.0, resulting in a concentration of NA cargo of approximately 0.1 mg/mL.
(§2) LNP preparations were formulated with molar ratios of 47.5% Ionizable Lipid: 40% Cholesterol: 2.5% PEG2000-DMG: 10% DSPC total lipid to NA molar ratio of 6 to 12.
(§3) LNP preparations were formed by microfluidic mixing of the lipid and NA solutions using Precision Nanosystems NanoAssemblr Ignite series Instruments, according to the manufacturer's protocol.
(§4) A 3:1 ratio of aqueous to organic solvent was maintained during mixing using differential flow rates. After mixing, LNP preparations were collected and diluted in TBS (approximately 7:1 v/v), and further buffer exchange was conducted using dialysis in TBS at 4° C. for 8 to 24 hours against a 20 kDa filter. After this initial dialysis, each individual LNP preparation was characterized via dynamic light scattering (DLS) to measure size and polydispersity. pKa of a subpopulation of LNP preparations was measured via TNS assay.
Male Balb/C mice aged approximately 8-12 weeks were used in the experiments described herein. […]
Age-matched mice were also used to administer vehicle (1×TBS) via tail vein injection as a control. Four to six days post-dose, tissues including liver, spleen, and bone marrow were collected. Base editing was determined by performing targeted deep sequencing analysis at the ALAS1 target site using extracted genomic DNA. Genomic DNA was isolated and fragmented and adapter-ligated using the Nextera DNA Flex Library Prep Kit (Illumina) using the 96-well plate Nextera indexing primers (Illumina), according to the manufacturer's instructions. Library size and concentration was confirmed by Fragment Analyzer (Agilent) and analyzed for whole genome sequencing using an Illumina HiSeq.

[1] = Encapsulation efficiency of LNP preparations (Ribogreen assay; Qubit, unlysed and lysed LNPs); assay type: physicochemical; conditions: LNP preparation with the ionizable lipid, ABE mRNA:sgRNA 1:1, except 7-1, 7-2, 7-6, 7-10 (unlysed and lysed LNPs, Qubit)
Description: as §1, §2, §3
With the exception of LNPs comprising ionizable lipids 7-1, 7-2, 7-6, and 7-10, RNA concentration and encapsulation efficiency were determined by Ribogreen assay (BioTek Synergy LX plate reader). For LNPs comprising ionizable lipids 7-1, 7-2, 7-6, and 7-10, RNA concentration was determined by Qubit microRNA kit (for siRNA) or HS RNA kit (for mRNA) per manufacturer's instructions, and encapsulation efficiency was determined by measuring unlysed and lysed LNPs.

[2] = LNP hydrodynamic diameter and polydispersity index by dynamic light scattering (DLS); assay type: physicochemical; conditions: for Diameter (nm): hydrodynamic diameter of the LNP preparation with the ionizable lipid; for PDI: polydispersity index of the LNP preparation with the ionizable lipid
Description: as §4
DLS-LNP preparation hydrodynamic diameter and polydispersity index (PDI) was measured using high throughput dynamic light scattering (DLS) (DynaPro plate reader II, Wyatt). LNP preparations were diluted 1×PBS to an appropriate concentration and analyzed.

Encapsulation Efficiency (%) [1] [%]	Diameter (nm) [2] [nm]	PDI [2]	SMILES	% Editing in Liver (0.05 mpk) (ALAS1 target site) [%]
96.4	69.26	0.11	CC/C=C\CCCCOC(CCC(=O)OCC(COC(=O)CCCCCC(=O)OCCC(CCCC)CCCC)COC(=O)CCC(CCCCCC)OC(=O)NCCN1CCCC1)OCCCC/C=C\CC (centres unmarked) [Compound 7-12, 1-(3-((4,4-bis(((Z)-oct-5-en-1-yl)oxy)butanoyl)oxy)-2-(((4-(((2-(pyrrolidin-1-yl)ethyl)carbamoyl)oxy)decanoyl)oxy)methyl)propyl) 7-(3-butylheptyl) heptanedioate]	1.7
97.3	52.45	0.04	CC/C=C\CCCCOC(CCC(=O)OCC(COC(=O)CCCCCC(=O)OCCC(CCCCC)CCCCC)COC(=O)CCC(CCCCCC)OC(=O)NCCN1CCCC1)OCCCC/C=C\CC (centres unmarked) [Compound 7-13, 1-(3-((4,4-bis(((Z)-oct-5-en-1-yl)oxy)butanoyl)oxy)-2-(((4-(((2-(pyrrolidin-1-yl)ethyl)carbamoyl)oxy)decanoyl)oxy)methyl)propyl) 7-(3-pentyloctyl) heptanedioate]	2.2
97.6	59.40	0.09	CC/C=C\CCCCOC(CCC(=O)OCC(COC(=O)CCCCCC(=O)OCCC(CCCCCC)CCCCCC)COC(=O)CCC(CCCCCC)OC(=O)NCCN1CCCC1)OCCCC/C=C\CC (centres unmarked) [Compound 7-14, 1-(3-((4,4-bis(((Z)-oct-5-en-1-yl)oxy)butanoyl)oxy)-2-(((4-(((2-(pyrrolidin-1-yl)ethyl)carbamoyl)oxy)decanoyl)oxy)methyl)propyl) 7-(3-hexylnonyl) heptanedioate]	0.1
97.9	58.45	0.08	CCCCCCCCOC(CCC(=O)OCC(COC(=O)CCCCCC(=O)OCCC(CCCCC)CCCCC)COC(=O)CCC(CCCCCC)OC(=O)NCCN1CCCC1)OCCCCCCCC (centres unmarked) [Compound 7-15, 1-(3-((4,4-bis(octyloxy)butanoyl)oxy)-2-(((4-(((2-(pyrrolidin-1-yl)ethyl)carbamoyl)oxy)decanoyl)oxy)methyl)propyl) 7-(3-pentyloctyl) heptanedioate]	6.8
98.0	52.55	0.05	CC/C=C\CCCCOC(CCC(=O)OCC(COC(=O)CCCCC(=O)OCCC(CCCCCC)CCCCCC)COC(=O)CCC(CCCCCC)OC(=O)NCCN1CCCC1)OCCCC/C=C\CC (centres unmarked) [Compound 7-16, 3-((4,4-bis(((Z)-oct-5-en-1-yl)oxy)butanoyl)oxy)-2-(((4-(((2-(pyrrolidin-1-yl)ethyl)carbamoyl)oxy)decanoyl)oxy)methyl)propyl (3-hexylnonyl) adipate]	0.7
98.5	57.11	0.09	CCCCCCCCOC(CCC(=O)OCC(COC(=O)CCCCC(=O)OCCC(CCCCCC)CCCCCC)COC(=O)CCC(CCCCCC)OC(=O)NCCN1CCCC1)OCCCCCCCC (centres unmarked) [Compound 7-17, 3-((4,4-bis(octyloxy)butanoyl)oxy)-2-(((4-(((2-(pyrrolidin-1-yl)ethyl)carbamoyl)oxy)decanoyl)oxy)methyl)propyl (3-hexylnonyl) adipate]	1.0
96.1	55.60	0.08	CC/C=C\CCCCOC(CCC(=O)OCC(COC(=O)CCCCCCC(=O)OCCC(CCCC)CCCC)COC(=O)CCC(CCCCCC)OC(=O)NCCN1CCCC1)OCCCC/C=C\CC (centres unmarked) [Compound 7-18, 1-(3-((4,4-bis(((Z)-oct-5-en-1-yl)oxy)butanoyl)oxy)-2-(((4-(((2-(pyrrolidin-1-yl)ethyl)carbamoyl)oxy)decanoyl)oxy)methyl)propyl) 8-(3-butylheptyl) octanedioate]	3.3
97.2	54.15	0.12	CC/C=C\CCCCOC(CCC(=O)OCC(COC(=O)CCCCCCC(=O)OCCC(CCCCC)CCCCC)COC(=O)CCC(CCCCCC)OC(=O)NCCN1CCCC1)OCCCC/C=C\CC (centres unmarked) [Compound 7-19, 1-(3-((4,4-bis(((Z)-oct-5-en-1-yl)oxy)butanoyl)oxy)-2-(((4-(((2-(pyrrolidin-1-yl)ethyl)carbamoyl)oxy)decanoyl)oxy)methyl)propyl) 8-(3-pentyloctyl) octanedioate]	1.7
97.3	65.85	0.06	CC/C=C\CCCCOC(CCC(=O)OCC(COC(=O)CCCCCCOC(=O)C(CCCC)CCCCCC)COC(=O)CCC(CCCC)OC(=O)NCCN1CCCC1)OCCCC/C=C\CC (centres unmarked) [Compound 7-22, 3-((4,4-bis(((Z)-oct-5-en-1-yl)oxy)butanoyl)oxy)-2-(((7-((2-butyloctanoyl)oxy)heptanoyl)oxy)methyl)propyl 4-(((2-(pyrrolidin-1-yl)ethyl)carbamoyl)oxy)octanoate]	5.6
98.7	57.90	0.12	CC/C=C\CCCCOC(CCC(=O)OCC(COC(=O)CCCCCCOC(=O)C(CCCC)CCCCCC)COC(=O)CCC(CCCCC)OC(=O)NCCN1CCCC1)OCCCC/C=C\CC (centres unmarked) [Compound 7-23, 3-((4,4-bis(((Z)-oct-5-en-1-yl)oxy)butanoyl)oxy)-2-(((7-((2-butyloctanoyl)oxy)heptanoyl)oxy)methyl)propyl 4-(((2-(pyrrolidin-1-yl)ethyl)carbamoyl)oxy)nonanoate]	1.0
97.8	78.75	0.11	CC/C=C\CCCCOC(CCC(=O)OCC(COC(=O)CCCCCC(=O)OCCC(CCCCC)CCCCC)COC(=O)CCC(CCC)OC(=O)NCCN1CCCC1)OCCCC/C=C\CC (centres unmarked) [Compound 7-25, 1-(3-((4,4-bis(((Z)-oct-5-en-1-yl)oxy)butanoyl)oxy)-2-(((4-(((2-(pyrrolidin-1-yl)ethyl)carbamoyl)oxy)heptanoyl)oxy)methyl)propyl) 7-(3-pentyloctyl) heptanedioate]	0.9
96.9	61.25	0.06	CC/C=C\CCCCOC(CCC(=O)OCC(COC(=O)CCCCCC(=O)OCCC(CCCCC)CCCCC)COC(=O)CCC(CCCCC)OC(=O)NCCN1CCCC1)OCCCC/C=C\CC (centres unmarked) [Compound 7-27, 1-(3-((4,4-bis(((Z)-oct-5-en-1-yl)oxy)butanoyl)oxy)-2-(((4-(((2-(pyrrolidin-1-yl)ethyl)carbamoyl)oxy)nonanoyl)oxy)methyl)propyl) 7-(3-pentyloctyl) heptanedioate]	5.3
98.3	71.40	0.10	CC/C=C\CCCCOC(CCC(=O)OCC(COC(=O)CCCCCC(=O)OCCC(CCCCC)CCCCC)COC(=O)CCC(C)OC(=O)NCCN1CCCC1)OCCCC/C=C\CC (centres unmarked) [Compound 7-30, 1-(3-((4,4-bis(((Z)-oct-5-en-1-yl)oxy)butanoyl)oxy)-2-(((4-(((2-(pyrrolidin-1-yl)ethyl)carbamoyl)oxy)pentanoyl)oxy)methyl)propyl) 7-(3-pentyloctyl) heptanedioate]	0.8
96.1	53.30	0.10	CC/C=C\CCCCOC(CCC(=O)OCC(COC(=O)CCCCCC(=O)OCC(CCCC)CCCCCC)COC(=O)CCC(CCCCCC)OC(=O)NCCN1CCCC1)OCCCC/C=C\CC (centres unmarked) [Compound 7-32, 1-(3-((4,4-bis(((Z)-oct-5-en-1-yl)oxy)butanoyl)oxy)-2-(((4-(((2-(pyrrolidin-1-yl)ethyl)carbamoyl)oxy)decanoyl)oxy)methyl)propyl) 7-(2-butyloctyl) heptanedioate]	0.6
